Laboratory results published in patent publication US7148194B2, “Method to increase fibronectin” (Kimberly-Clark Worldwide, Inc., priority 2002, dated 2006).

Columns and labels:
MMP-9 [1] = target: T1, MMP-9 (Homo sapiens, UniProt P14780); assay: isothermal titration calorimetry with MMP-9; type: binding; conditions: ITC, 20 mM NaCl
T1 construct: Active MMP-9 enzyme was purchased from Calbiochem; purchased Calbiochem
Protocol: Isothermal titration calorimetry (ITC) was performed with a VP-ITC instrument from MicroCal, Inc. Titrations were carried out by injecting 5 μL of an inhibitor peptide solution (at concentration ranges from 0.5 mM to 2.0 mM) into the 1.4 mL stirred reaction cell. MMP-9 ranged in concentration from 50 to 80 μM in the cell. Both the inhibitor and the enzyme were in 20 mM sodium cacodylate (pH 5.5–7.0), 40 mM NaCl, or 20 mM Tris-HCl (pH 7.0–7.5), 40 mM NaCl. Titrations were conducted between 20° C. and 40° C. Typical experimental conditions for the titrations were a 10 second injection period followed by a 240 second delay between injections for a total of 40 injections. Blank titrations of inhibitor peptide into buffer were performed in order to correct for heats of dilution and mixing.
The independent set of multiple binding sites is the most common model for binding experiment evaluations. The analytical solution for the total heat is determined by (Freire et al., 1990):
[formula] where Q is the total heat, V is the cell volume, ΔH is the enthalpy, M is the macromolecule concentration (the binding partner in the cell), n is the binding stoichiometry, L is the ligand concentration (the binding partner in the syringe), and K is the association constant. Data were fit to this model using Origin version 5 (MicroCal, Inc.). Surface Plasmon Resonance
The peptide was dissolved in 20 mM cacodylate (pH 6.8), 20 mM NaCl at a final concentration of 1 mM. MMP-9 was dialyzed into the same buffer at a final concentration of 20 μM. A series of standard injections were performed as described above.

MMP-2 = target: T2, MMP-2 (Homo sapiens, UniProt P08253); assay: isothermal titration calorimetry with MMP-2; type: binding; conditions: ITC, 10 mM NaCl at 25° C.
T2 sequence (P08253 110-660): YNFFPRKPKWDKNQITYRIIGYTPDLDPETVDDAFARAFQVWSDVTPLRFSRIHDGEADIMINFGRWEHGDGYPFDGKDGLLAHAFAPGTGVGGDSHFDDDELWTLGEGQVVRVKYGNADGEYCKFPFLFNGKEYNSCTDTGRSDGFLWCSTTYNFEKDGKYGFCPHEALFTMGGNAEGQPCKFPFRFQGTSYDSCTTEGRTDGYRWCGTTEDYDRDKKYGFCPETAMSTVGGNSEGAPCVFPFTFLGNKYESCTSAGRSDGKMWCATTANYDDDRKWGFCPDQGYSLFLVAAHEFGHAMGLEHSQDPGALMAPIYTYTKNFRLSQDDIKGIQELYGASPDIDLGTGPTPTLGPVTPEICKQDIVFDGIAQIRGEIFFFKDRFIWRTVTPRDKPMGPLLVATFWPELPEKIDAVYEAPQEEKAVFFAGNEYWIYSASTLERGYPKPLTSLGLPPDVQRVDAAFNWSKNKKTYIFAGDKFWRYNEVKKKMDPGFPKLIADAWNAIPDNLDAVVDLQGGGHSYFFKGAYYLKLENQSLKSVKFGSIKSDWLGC

MMP-9 [2] = target: T1, MMP-9; assay: enzymatic hydrolysis of fluoresceinated collagen by MMP-9; type: biochemical; conditions: extended time assay, FIG. 8
Protocol: Two enzymatic assays were performed. The first assay measured the enzymatic hydrolysis of fluoresceinated collagen by MMP-9 as a function of time. […] The protein mixture was added to the collagen substrate, and was quickly mixed. Fluorescence emission intensity at 520 nm was measured as a function of time (excitation wavelength 495 nm) in a Shimadzu RF5301 fluorometer (Lakowicz, 1983). The fluorescein release assay was used to determine the inhibitory constant (Ki) of the peptide inhibitor ([I]) according to Segel (1993) via the use of Dixon plots (1/v vs. [I]), such that: slope=Km/(Vmax Ki [S]) (1) where Km is the Michaelis constant, Vmax is the reaction maximum velocity, and [S] is the substrate concentration.

neutrophils = assay: neutrophil migration assay, transwell plate; type: cell-based, human; conditions: for Percent Neutrophil Migration exp. 1: 0.4% HSA; for Percent Neutrophil Migration exp. 2: 0.04% HSA
Protocol: Peptides were synthesized and purified by the Microchemical Facility at Emory University or by SigmaGenesis. All peptides were analyzed by mass spectrometry after HPLC to assess purity. Approximately 0.5–2.0 milligrams of peptide were used to make fresh stock solutions (5 mg/mL in HBSS/HSA) for each migration assay. The peptide stock solutions were used to make more dilute solutions (1 mg/mL, 100 μg/mL, 10 μg/mL, 1 μg/mL, 100 ng/mL, and 10 ng/mL) in HBSS/HSA for the assays.
Neutrophils were isolated from human blood (collected in Vacutainer™ tubes containing EDTA) by layering the blood/EDTA mixture (about 20 mL) on top of two layers of Histopaque™ 1119 (bottom layer, 18 mL) and 1077 (top layer, 7 mL) in 50 mL Falcon tubes. The tubes were centrifuged at 1800 rpm for 30 minutes (no brake). Four layers appeared in the tubes after the spin (from top to bottom layers): plasma, 1077, 1119, and red blood cells. The buffy coat between the plasma and 1077 layers contained lymphocytes, monocytes, and some platelets. The plasma layer, the buffy coat, and most of the 1077 layer was removed and discarded. The 1119 layer that contained the neutrophils was removed and was placed into a clean 50 mL tube. Dulbecco's Phosphate Buffered Saline (DPBS) was added to bring the volume to 50 mL. The cells were centrifuged for 15 minutes at 2100 rpm. The cells were resuspended in 10 mL of DPBS, transferred to 15 mL tubes, and centrifuged again for 10 minutes at 2000 rpm. This process was repeated to wash the cells a second time. After the supernatant was removed, the red blood cells were lysed by adding 6 mL of cold sterile water to each 15 mL of supernatant. Cells were mixed in the water for only 30 seconds. Six mL of cold 2% sterile saline was then added. Cells were centrifuged again for 10 minutes at 2000 rpm. The red supernatant (containing hemoglobin from red blood cells) was removed. This process of red blood cell lysis was repeated two more times to remove all of the red blood cells. After most of the red blood cells were removed, neutrophils were resuspended in 10 mL of HBSS/HSA for counting with trypan blue.
A neutrophil migration assay was performed in duplicate using a 24-well transwell plate (3 μm pore size for membrane). Transwell membranes were pre-moistened with 20–40 μL of HBSS/HSA (0.04–0.4%). Chemotactic solutions (500 μL) were added to the bottom of each well. […] Transwells were then placed into the chemotactic solutions. The plate was placed into the incubator (37° C., 5% CO2) for one hour. Cells that migrated through the membrane were counted using trypan blue.
In the neutrophil migration experiments, neutrophils that were isolated were approximately 95% viable. […]

[3] = MMP-9, 20 mM cacodylate (pH 6.8)
[4] = MMP-2, 20 mM cacodylate (pH 6.8)

T1 sequence (P14780 107-707 limits assumed): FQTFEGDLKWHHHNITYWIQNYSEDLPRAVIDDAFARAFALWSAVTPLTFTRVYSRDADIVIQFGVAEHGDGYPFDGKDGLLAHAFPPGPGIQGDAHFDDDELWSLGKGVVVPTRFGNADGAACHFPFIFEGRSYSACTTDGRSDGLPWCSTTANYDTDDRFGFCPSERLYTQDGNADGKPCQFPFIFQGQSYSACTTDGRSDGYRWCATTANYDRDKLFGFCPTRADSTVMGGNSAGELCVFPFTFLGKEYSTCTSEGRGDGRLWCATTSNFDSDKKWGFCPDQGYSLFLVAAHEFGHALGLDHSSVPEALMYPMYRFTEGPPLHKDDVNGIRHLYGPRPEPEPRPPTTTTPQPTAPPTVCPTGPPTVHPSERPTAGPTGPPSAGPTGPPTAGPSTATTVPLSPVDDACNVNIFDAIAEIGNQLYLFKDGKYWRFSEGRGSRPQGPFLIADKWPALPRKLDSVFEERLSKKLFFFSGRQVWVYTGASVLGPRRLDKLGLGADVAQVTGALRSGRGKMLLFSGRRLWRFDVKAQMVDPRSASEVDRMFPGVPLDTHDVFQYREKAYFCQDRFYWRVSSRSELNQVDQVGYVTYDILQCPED

With `CC(C)[C@H](NC(=O)[C@H](CC(=O)O)NC(=O)[C@@H]1CCCN1C(=O)[C@H](CC(N)=O)NC(=O)CNC(=O)[C@H](CS)NC(=O)[C@H](CCCNC(=N)N)NC(=O)[C@@H]1CCCN1)C(=O)N[C@@H](C)C(=O)N[C@@H](CC(N)=O)C(=O)N[C@@H](Cc1ccc(O)cc1)C(=O)N[C@@H](CC(N)=O)C(=O)N[C@@H](Cc1ccccc1)C(=O)N[C@@H](Cc1ccccc1)C(=O)N1CCC[C@H]1C(=O)N[C@@H](CCCNC(=N)N)C(=O)N[C@@H](CCCCN)C(=O)N1CCC[C@H]1C(=O)N[C@@H](CCCCN)C(=O)O` [Peptide 19-mer] the Stoichiometry (MMP-9 [1]; MMP-9 20 μM, peptide 1 mM, 20 mM cacodylate (pH 6.8)) was 0.975 ± 0.02, the ΔH (MMP-9 [1]; [3]) was -26.1 ± 1.45 kcal/mol and the ΔS (MMP-9 [1]; [3]) was −11.6 ± 2.2 cal mol^−1 K^−1. The Stoichiometry (MMP-2; MMP-2 20 μM, 19-mer 1 mM, 20 mM cacodylate (pH 6.8)) was 0.99 ± 0.03, the ΔH (MMP-2; [4]) was -15.4 ± 2.05 kcal/mol and the ΔS (MMP-2; [4]) was −21.1 ± 1.8 cal mol^−1 K^−1. The “time over which MMP-9 catalyzed hydrolysis of collagen is effectively inhibited” value (MMP-9 [2]) was > 1000 min, the “Percent Neutrophil Migration exp. 1” value (neutrophils; 1 μg/mL) was 32% and the “Percent Neutrophil Migration exp. 1” value (neutrophils; 10 μg/mL) was 22%. The “Percent Neutrophil Migration exp. 2” value (neutrophils; 100 μg/mL) was 0%, the “Percent Neutrophil Migration exp. 1” value (neutrophils; 100 μg/mL) was 29% and the “effect on neutrophil migration” value (neutrophils; 1 mg/mL to 1 μg/mL) was “did not have an effect on neutrophil migration”. For the same molecule, the “Percent Neutrophil Migration exp. 2” value (neutrophils; 1 mg/mL) was 4% and the “Percent Neutrophil Migration exp. 1” value (neutrophils; 1 mg/mL) was 23%.
